{
  "source": "patent US8513266B2",
  "about": "“Methods of treating cancer using pyridopyrimidinone inhibitors of PI3K alpha” (priority 2007, dated 2013)",
  "assay_type_in_all_cases": "in vivo",
  "key": {"[1]": {"test_system": "MDA-MB-468 human breast adenocarcinoma cells", "settings": "MDA-MB-468 xenograft; erlotinib 100 mg/kg qd oral; Compound A 100 mg/kg q2d oral; combination of the two", "experimental": "Female and male athymic nude mice (NCr) 5-8 weeks of age and weighing approximately 20-25 g were used in the following model. Prior to initiation of a study, the animals were allowed to acclimate for a minimum of 48 h. During these studies, animals were provided food and water ad libitum and housed in a room conditioned at 70-75° F. and 60% relative humidity. A 12 h light and 12 h dark cycle was maintained with automatic timers. All animals were examined daily for compound-induced or tumor-related deaths. […]\n(§1) For subcutaneous or intradermal tumors, the mean tumor weight of each animal in the respective control and treatment groups was determined twice weekly during the study. Tumor weight (TW) was determined by measuring perpendicular diameters with a caliper, using the following formula: tumor weight (mg)=[tumor volume=length (mm)×width^2 (mm^2)]/2\nPercent inhibition of tumor growth (TGI) is determined with the following formula:\n[formula] • where X0=average TW of all tumors on group day • Xf=TW of treated group on Day f • Yf=TW of vehicle control group on Day f If tumors regress below their starting sizes, then the percent tumor regression is determined with the following formula:\n[formula] Tumor size is calculated individually for each tumor to obtain a mean±SEM value for each experimental group. […]"}, "[2]": {"test_system": "A549 human lung carcinoma cells", "assay": "A549 non-small cell lung cancer xenograft model", "settings": "Compound A 30 mg/kg qd", "experimental": "(§2) Female and male athymic nude mice (NCr) 5-8 weeks of age and weighing approximately 20-25 g were used in the following model. Prior to initiation of a study, the animals were allowed to acclimate for a minimum of 48 h. During these studies, animals were provided food and water ad libitum and housed in a room conditioned at 70-75° F. and 60% relative humidity. A 12 h light and 12 h dark cycle was maintained with automatic timers. All animals were examined daily for compound-induced or tumor-related deaths.\n(§3) A549 human lung carcinoma cells were cultured in vitro in DMEM (Mediatech) supplemented with 10% Fetal Bovine Serum (Hyclone), PenicilliN-Streptomycin and non-essential amino acids at 37° C. in a humidified 5% CO2 atmosphere. […] A transponder was implanted in each mouse for identification, and animals were monitored daily for clinical symptoms and survival. Body weights were recorded daily. […]\nas §1\n(§4) Percent inhibition of tumor growth (TGI) is determined with the following formula: […]"}, "[3]": {"test_system": "MCF7 human mammary adenocarcinoma cells", "assay": "MCF7 breast cancer xenograft model", "settings": "MCF7 tumors at end of study, 30 mg/kg qd each agent, alone or combined", "experimental": "as §2\nMCF7 human mammary adenocarcinoma cells were cultured in vitro in DMEM (Cellgro) supplemented with 10% Fetal Bovine Serum (Cellgro), Penicillin-Streptomycin and non-essential amino acids at 37° C. in a humidified 5% CO2 atmosphere. […] A transponder was implanted into each mouse for identification and data tracking, and animals were monitored daily for clinical symptoms and survival. During the dosing period, the tumor weight of each animal was determined twice weekly and the body weight of each animal was measured daily. […]\nas §1, with “(mm^2)]/2 […]” for “(mm^2)]/2”"}, "[4]": {"test_system": "Calu-6 human lung anaplastic carcinoma cells", "assay": "Calu-6 non-small cell lung cancer xenograft model", "settings": "Calu-6 xenograft, single agents; Compound A 100 mg/kg q2d or 30 mg/kg bid oral; carboplatin 50 mg/kg i.v. q4d", "experimental": "as §2\nas §3, with “Calu-6” for “A549”, “lung anaplastic” for “lung”, “Penicillin-Streptomycin” for “PenicilliN-Streptomycin”, “humidified,” for “humidified”\nas §1, §4"}, "[5]": {"test_system": "PC-3 human prostate adenocarcinoma cells", "experimental": "as §2\nas §3, with “PC-3” for “A549”, “prostate adenocarcinoma” for “lung carcinoma”, “20%” for “10%”, “Penicillin-Streptomycin” for “PenicilliN-Streptomycin”\nas §1, §4"}},
  "data": [
    {"smiles": "C#Cc1cccc(Nc2ncnc3cc(OCCOC)c(OCCOC)cc23)c1", "note": "[erlotinib]", "values": [
      {"measurement": "tumor growth inhibition (FIG. 5)", "setting": "[1]", "value": "significant but incomplete tumor growth inhibition"}
    ]},
    {"smiles": "COc1cc2c(Nc3ccc(Cl)c(Cl)c3F)ncnc2cc1OC[C@@H]1C[C@@H]2CN(C)C[C@@H]2C1", "note": "[Compound B, N-(3,4-dichloro-2-fluorophenyl)-7-({[(3aR,5r,6aS)-2-methyloctahydrocyclopenta-[c]pyrrol-5-yl]methyl}oxy)-6-(methyloxy)quinazolin-4-amine]", "values": [
      {"measurement": "tumor growth inhibition (TGI) (FIG. 4a)", "setting": "[2]; Compound B 30 mg/kg qd oral for 18 days, combination: Compound B followed by Compound A after about six hours", "value": 80, "unit": "%"},
      {"measurement": "dose skipping", "setting": "[2]; Compound B 30 mg/kg qd, alone or co-administered", "value": "no dose omission"},
      {"measurement": "induction of TUNEL-positive (apoptotic) cells", "setting": "[3]; compared to vehicle control", "value": "did not result in a significant induction"},
      {"measurement": "decrease in CD31-positive tumor vessels (microvessel density, MVD)", "setting": "[3]", "value": 31, "unit": "%"}
    ]},
    {"smiles": "N.N.O=C([O-])C1(C(=O)[O-])CCC1.[Pt+2]", "note": "[carboplatin]", "values": [
      {"measurement": "tumor growth inhibition (FIG. 3)", "setting": "[4]", "value": "Significant tumor growth inhibition"}
    ]},
    {"smiles": "CO[C@H]1C[C@@H]2CC[C@@H](C)[C@@](O)(O2)C(=O)C(=O)N2CCCC[C@H]2C(=O)O[C@H]([C@H](C)C[C@@H]2CC[C@@H](O)[C@H](OC)C2)CC(=O)[C@H](C)/C=C(\\C)[C@@H](O)[C@@H](OC)C(=O)[C@H](C)C[C@H](C)/C=C/C=C/C=C/1C", "note": "[rapamycin, Rapamycin]", "values": [
      {"measurement": "decrease in the fraction of proliferating cells (Ki67) (FIG. 6)", "setting": "[5]; PC-3 tumors resected at end of efficacy study, Compound A 100 mg/kg q2d, rapamycin, monotherapy or combined", "value": 77, "unit": "%"}
    ]},
    {"smiles": "CC(=O)O[C@H]1C(=O)[C@@]2(C)[C@H]([C@H](OC(=O)c3ccccc3)[C@]3(O)C[C@H](OC(=O)[C@H](O)[C@@H](NC(=O)c4ccccc4)c4ccccc4)C(C)=C1C3(C)C)[C@]1(OC(C)=O)CO[C@@H]1C[C@@H]2O", "note": "[taxol, Paclitaxel]", "values": [
      {"measurement": "tumor growth inhibition (FIG. 1)", "setting": "[5]; PC-3 xenograft, Compound A 100 mg/kg q2d or 30 mg/kg bid oral, taxol 7.5 mg/kg i.v. twice weekly, combination of either dose of Compound A with taxol", "value": "Comparable tumor growth inhibition"}
    ]}
  ]
}
